Data as given in ChEMBL document CHEMBL1152560, “Substituted 2-arylbenzothiazoles as kinase inhibitors: hit-to-lead optimization” (Bioorg Med Chem, 2009).

Assays:
[1] = molecular target: CDK9/cyclin T1 (Homo sapiens) (UniProt O60563+P50750); assay: Residual activity of CDK9/Cyclin T at 1 uM by microplate scintillation counting; type: protein-complex assay
[2] = molecular target: Mitogen-activated protein kinase kinase kinase 8 (Homo sapiens) (UniProt P41279); assay: Residual activity of COT at 1 uM by microplate scintillation counting
Chain of Mitogen-activated protein kinase kinase kinase 8 (Homo sapiens) (P41279 whole entry): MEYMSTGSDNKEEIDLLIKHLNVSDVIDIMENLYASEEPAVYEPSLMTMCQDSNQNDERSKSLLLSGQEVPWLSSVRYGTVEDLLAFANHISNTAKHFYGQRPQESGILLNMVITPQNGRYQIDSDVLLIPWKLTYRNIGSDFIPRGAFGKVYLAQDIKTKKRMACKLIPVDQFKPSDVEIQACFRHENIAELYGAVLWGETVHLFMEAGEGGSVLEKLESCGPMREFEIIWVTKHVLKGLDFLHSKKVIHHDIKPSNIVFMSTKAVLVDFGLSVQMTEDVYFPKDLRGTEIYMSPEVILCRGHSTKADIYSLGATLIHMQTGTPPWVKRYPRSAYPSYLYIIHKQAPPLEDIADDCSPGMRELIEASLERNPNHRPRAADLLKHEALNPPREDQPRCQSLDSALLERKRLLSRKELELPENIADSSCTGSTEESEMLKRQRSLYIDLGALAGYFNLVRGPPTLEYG

[3] = molecular target: Ephrin type-A receptor 4 (Homo sapiens) (UniProt P54764); assay: Residual activity of EPHA4 at 1 uM by microplate scintillation counting
Chain of Ephrin type-A receptor 4 (Homo sapiens) (P54764 whole entry): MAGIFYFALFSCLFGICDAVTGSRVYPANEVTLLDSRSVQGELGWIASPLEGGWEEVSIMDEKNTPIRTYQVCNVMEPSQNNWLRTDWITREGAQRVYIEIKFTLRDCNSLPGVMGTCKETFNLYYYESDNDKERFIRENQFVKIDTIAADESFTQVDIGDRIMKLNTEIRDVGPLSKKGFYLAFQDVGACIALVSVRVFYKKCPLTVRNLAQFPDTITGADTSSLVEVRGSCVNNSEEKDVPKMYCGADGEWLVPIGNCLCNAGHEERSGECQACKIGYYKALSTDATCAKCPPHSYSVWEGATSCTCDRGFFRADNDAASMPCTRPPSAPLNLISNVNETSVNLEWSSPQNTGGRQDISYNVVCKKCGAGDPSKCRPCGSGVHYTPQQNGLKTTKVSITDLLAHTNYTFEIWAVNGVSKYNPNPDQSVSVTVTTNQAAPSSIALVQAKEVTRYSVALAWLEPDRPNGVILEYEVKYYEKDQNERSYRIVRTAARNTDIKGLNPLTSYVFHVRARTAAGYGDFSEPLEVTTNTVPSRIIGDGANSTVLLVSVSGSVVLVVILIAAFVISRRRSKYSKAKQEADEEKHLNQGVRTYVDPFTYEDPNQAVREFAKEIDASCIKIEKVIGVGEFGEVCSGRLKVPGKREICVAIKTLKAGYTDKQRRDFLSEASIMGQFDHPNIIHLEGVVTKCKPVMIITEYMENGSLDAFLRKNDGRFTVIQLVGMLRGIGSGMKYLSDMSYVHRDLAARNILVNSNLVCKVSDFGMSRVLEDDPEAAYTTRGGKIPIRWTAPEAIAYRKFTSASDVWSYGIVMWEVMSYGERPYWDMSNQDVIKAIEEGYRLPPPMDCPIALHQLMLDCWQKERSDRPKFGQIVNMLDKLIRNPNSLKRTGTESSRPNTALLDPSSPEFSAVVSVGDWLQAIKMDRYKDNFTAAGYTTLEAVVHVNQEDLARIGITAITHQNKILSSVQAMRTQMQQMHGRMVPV

[4] = Residual activity of PKA at 1 uM by microplate scintillation counting
[5] = molecular target: Tyrosine-protein kinase Lck (Homo sapiens) (UniProt P06239); assay: Residual activity of LCK at 1 uM by microplate scintillation counting
Chain of Tyrosine-protein kinase Lck (Homo sapiens) (P06239 2-509 limits assumed): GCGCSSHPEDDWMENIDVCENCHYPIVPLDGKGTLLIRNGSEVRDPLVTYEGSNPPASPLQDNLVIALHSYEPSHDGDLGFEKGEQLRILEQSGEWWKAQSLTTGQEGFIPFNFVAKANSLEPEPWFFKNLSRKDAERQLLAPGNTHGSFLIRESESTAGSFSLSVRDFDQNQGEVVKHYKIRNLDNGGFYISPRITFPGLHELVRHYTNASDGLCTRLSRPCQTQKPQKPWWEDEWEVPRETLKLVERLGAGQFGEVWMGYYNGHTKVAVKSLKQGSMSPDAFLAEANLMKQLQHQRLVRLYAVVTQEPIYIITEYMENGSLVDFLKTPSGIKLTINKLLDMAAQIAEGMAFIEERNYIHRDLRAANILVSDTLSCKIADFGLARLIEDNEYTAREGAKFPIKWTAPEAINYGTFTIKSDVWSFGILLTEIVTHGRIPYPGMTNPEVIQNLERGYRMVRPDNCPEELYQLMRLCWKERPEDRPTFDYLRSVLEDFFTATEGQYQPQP

[6] = molecular target: T1, Serine/threonine-protein kinase PLK4 (Homo sapiens) (UniProt O00444); assay: Residual activity of SAK at 1 uM by microplate scintillation counting
T1 sequence (whole entry): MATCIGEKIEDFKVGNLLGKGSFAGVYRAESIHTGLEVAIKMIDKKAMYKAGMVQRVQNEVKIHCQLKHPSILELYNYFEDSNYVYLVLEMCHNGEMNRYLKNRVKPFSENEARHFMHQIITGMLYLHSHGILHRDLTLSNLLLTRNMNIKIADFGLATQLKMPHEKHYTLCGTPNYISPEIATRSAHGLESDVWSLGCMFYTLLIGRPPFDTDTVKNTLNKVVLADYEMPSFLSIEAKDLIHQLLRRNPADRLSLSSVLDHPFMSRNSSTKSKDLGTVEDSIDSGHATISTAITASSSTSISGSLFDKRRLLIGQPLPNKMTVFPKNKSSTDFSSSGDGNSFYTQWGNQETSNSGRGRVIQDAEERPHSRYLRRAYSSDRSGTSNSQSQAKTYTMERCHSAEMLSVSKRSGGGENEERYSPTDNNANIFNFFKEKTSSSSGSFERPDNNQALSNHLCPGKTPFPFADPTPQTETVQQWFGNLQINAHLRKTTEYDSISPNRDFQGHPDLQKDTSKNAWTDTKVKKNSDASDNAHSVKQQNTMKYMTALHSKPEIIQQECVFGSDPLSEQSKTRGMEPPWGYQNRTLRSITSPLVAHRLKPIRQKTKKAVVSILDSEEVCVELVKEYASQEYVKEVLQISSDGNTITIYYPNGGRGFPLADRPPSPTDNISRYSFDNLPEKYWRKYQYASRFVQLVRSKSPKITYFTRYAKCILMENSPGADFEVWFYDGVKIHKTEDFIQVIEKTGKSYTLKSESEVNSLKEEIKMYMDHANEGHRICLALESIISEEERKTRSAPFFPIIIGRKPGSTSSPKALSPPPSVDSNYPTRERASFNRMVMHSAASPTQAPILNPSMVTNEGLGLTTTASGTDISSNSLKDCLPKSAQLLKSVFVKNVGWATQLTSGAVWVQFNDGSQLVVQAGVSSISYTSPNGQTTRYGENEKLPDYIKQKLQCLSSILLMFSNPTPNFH

[7] = molecular target: Tyrosine-protein kinase SYK (Homo sapiens) (UniProt P43405); assay: Residual activity of SYK at 1 uM by microplate scintillation counting
[8] = molecular target: T2, Eukaryotic translation initiation factor 2-alpha kinase 3 (Homo sapiens) (UniProt Q9NZJ5); assay: Residual activity of EIF2AK3 at 0.1 uM by microplate scintillation counting
T2 sequence (whole entry): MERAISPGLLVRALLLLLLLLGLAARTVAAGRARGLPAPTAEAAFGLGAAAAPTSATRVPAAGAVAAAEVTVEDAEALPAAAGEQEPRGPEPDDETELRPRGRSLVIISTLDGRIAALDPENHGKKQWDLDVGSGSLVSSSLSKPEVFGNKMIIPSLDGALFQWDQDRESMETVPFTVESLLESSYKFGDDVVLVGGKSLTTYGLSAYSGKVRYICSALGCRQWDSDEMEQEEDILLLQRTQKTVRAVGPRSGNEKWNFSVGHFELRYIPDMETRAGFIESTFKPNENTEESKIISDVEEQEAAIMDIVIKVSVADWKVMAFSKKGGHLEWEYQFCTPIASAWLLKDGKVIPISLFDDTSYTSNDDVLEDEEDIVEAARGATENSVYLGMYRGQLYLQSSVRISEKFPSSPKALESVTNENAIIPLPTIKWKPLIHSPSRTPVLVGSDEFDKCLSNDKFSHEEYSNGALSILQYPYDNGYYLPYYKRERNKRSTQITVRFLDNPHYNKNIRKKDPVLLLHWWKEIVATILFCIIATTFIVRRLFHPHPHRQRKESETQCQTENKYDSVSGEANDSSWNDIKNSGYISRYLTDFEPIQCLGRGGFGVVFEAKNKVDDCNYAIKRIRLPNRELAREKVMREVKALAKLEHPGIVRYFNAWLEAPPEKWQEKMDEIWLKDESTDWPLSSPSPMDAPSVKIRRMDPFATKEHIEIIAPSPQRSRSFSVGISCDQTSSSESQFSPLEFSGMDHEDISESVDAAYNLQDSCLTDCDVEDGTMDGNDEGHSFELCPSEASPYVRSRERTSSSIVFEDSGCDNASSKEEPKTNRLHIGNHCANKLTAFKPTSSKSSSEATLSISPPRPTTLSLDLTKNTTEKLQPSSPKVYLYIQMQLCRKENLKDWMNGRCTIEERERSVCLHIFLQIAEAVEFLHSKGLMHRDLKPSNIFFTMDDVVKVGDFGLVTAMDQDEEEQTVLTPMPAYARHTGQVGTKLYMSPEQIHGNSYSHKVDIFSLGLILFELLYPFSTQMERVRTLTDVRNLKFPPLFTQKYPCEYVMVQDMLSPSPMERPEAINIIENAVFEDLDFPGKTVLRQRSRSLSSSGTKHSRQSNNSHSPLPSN

[9] = molecular target: T3, Serine/threonine-protein kinase Nek2 (Homo sapiens) (UniProt P51955); assay: Residual activity of NEK2 at 10 uM by microplate scintillation counting
T3 sequence (whole entry): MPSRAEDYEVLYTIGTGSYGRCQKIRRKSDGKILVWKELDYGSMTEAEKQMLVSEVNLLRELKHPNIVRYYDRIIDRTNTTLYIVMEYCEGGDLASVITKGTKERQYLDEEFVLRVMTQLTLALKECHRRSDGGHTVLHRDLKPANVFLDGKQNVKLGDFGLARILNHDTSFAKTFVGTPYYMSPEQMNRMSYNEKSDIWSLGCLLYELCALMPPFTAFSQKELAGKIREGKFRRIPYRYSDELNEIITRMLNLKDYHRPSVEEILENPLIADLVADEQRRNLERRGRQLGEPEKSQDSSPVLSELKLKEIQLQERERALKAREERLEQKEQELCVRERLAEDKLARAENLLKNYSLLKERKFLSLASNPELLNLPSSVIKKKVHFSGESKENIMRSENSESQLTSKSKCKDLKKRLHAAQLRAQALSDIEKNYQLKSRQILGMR

[10] = molecular target: Serine/threonine-protein kinase PAK 4 (Homo sapiens) (UniProt O96013); assay: Residual activity of PAK4 at 10 uM by microplate scintillation counting
Chain of Serine/threonine-protein kinase PAK 4 (Homo sapiens) (O96013 whole entry, looked up): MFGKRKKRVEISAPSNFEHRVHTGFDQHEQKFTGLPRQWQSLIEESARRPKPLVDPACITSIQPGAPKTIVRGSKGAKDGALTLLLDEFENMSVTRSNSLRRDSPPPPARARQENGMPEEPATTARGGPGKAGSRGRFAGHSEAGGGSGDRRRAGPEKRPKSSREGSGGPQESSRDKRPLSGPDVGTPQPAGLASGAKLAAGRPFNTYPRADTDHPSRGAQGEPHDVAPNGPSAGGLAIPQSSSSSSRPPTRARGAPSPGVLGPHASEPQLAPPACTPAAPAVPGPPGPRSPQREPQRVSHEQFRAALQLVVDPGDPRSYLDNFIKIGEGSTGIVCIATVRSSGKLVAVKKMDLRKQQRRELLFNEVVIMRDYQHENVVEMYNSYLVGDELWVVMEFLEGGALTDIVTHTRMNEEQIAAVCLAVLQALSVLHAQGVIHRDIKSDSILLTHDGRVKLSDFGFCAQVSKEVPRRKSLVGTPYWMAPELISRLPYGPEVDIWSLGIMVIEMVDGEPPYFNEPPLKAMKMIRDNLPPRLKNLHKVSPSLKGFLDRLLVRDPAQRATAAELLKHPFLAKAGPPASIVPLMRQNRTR

SMILES	residual activity [1]	residual activity [2]	residual activity [3]	residual activity [4]	residual activity [5]	residual activity [6]	residual activity [7]	residual activity [8]	residual activity [9]	residual activity [10]
COc1cc2c(Oc3ccc(-c4nc5ccccc5s4)cc3)ncnc2cc1OCCCN1CCN(C)CC1	102%	-18%	102%	106%	46%	10%	95%	90%	54%	55%
COc1cc2c(Oc3ccc(-c4nc5ccccc5s4)cc3)ncnc2cc1OCCCN1CCCC1	93%	73%	94%	96%	64%	19%	97%	102%	34%	91%
COc1cc2c(Oc3ccc(-c4nc5ccccc5s4)cc3F)ncnc2cc1OCCCN1CCN(C)CC1	92%	77%	92%	103%	50%	26%	102%	101%	38%	50%
